Data: ChEMBL document CHEMBL3217438, “Diphenylbutylpiperidine-based cell autophagy inducers: Design, synthesis and SAR studies” (Medchemcomm, 2011)

Test: Induction of autophagy in human H4-LC3 cells assessed as number of spots of LC3-GFP after 4 hrs by DAPI staining
Format: functional, cell-based

| Structure (SMILES) | EC50 [µM] |
| --- | --- |
| Fc1ccc(C(CCCN2CCC(c3noc4cc(F)ccc34)CC2)c2ccc(F)cc2)cc1 | > 50 |
| O=c1[nH]c2ccccc2n1C1CCN(CCCC(c2ccc(F)cc2)c2ccc(F)cc2)CC1 [PIMOZIDE] | 5.4 |
| O=[N+]([O-])c1ccc2c(cnn2C2CCN(CCCC(c3ccc(F)cc3)c3ccc(F)cc3)CC2)c1 | 4.5 |
| O=C1NCc2ccccc2N1C1CCN(CCCC(c2ccc(F)cc2)c2ccc(F)cc2)CC1 | 2.9 |
| Fc1ccc(C(CCCN2CCC(N3CCc4ccccc4C3)CC2)c2ccc(F)cc2)cc1 | 6 |
| FC(F)(F)c1ccc(C(CCCN2CCC(N3CCc4ccccc43)CC2)c2ccc(C(F)(F)F)cc2)cc1 | 1.2 |
| O=C1NC2(CCN(CCCC(c3ccc(F)cc3)c3ccc(F)cc3)CC2)Nc2ccccc21 | 1.9 |
| Fc1ccc(C(CCCN2CCC(c3nc4ccccc4s3)CC2)c2ccc(F)cc2)cc1 | 10.6 |
| O=c1sc2ccccc2n1C1CCN(CCCC(c2ccc(F)cc2)c2ccc(F)cc2)CC1 | > 50 |
| N#CC(CCCN1CCC(c2c[nH]c3ccccc23)CC1)(c1ccccc1)c1ccccc1 | 2.6 |
| Fc1ccc(C(CCCN2CCC(c3c[nH]c4ccccc34)CC2)c2ccc(F)cc2)cc1 | 6.4 |
| Fc1ccc(C(CCCN2CCC(n3nnc4ccccc43)CC2)c2ccc(F)cc2)cc1 | > 50 |
| FC(F)(F)c1ccc(C(CCCN2CCC(N3Cc4ccccc4C3)CC2)c2ccc(C(F)(F)F)cc2)cc1 | 1.5 |
| O=C1Nc2ccccc2CN1C1CCN(CCCC(c2ccc(F)cc2)c2ccc(F)cc2)CC1 | 1.3 |
| O=c1oc2ccccc2n1C1CCN(CCCC(c2ccc(F)cc2)c2ccc(F)cc2)CC1 | 8.2 |
| O=S1(=O)NCc2ccccc2N1C1CCN(CCCC(c2ccc(F)cc2)c2ccc(F)cc2)CC1 | 10.2 |
| N#CC(CCCN1CCC(c2nc3ccccc3[nH]2)CC1)(c1ccccc1)c1ccccc1 | 8.5 |

| Structure (SMILES) | EC50 [µM] |
| --- | --- |
| Fc1ccc(C(CCCN2CCC(n3nc4ccccc4n3)CC2)c2ccc(F)cc2)cc1 | > 50 |
| O=c1c2ccccc2nnn1C1CCN(CCCC(c2ccc(F)cc2)c2ccc(F)cc2)CC1 | 7.8 |
| N#CC(CCCN1CCC(N2CCc3ccccc32)CC1)(c1ccccc1)c1ccccc1 | 4.5 |
| FC(F)(F)c1ccc(C(CCCN2CCC(c3c[nH]c4ccccc34)CC2)c2ccc(C(F)(F)F)cc2)cc1 | 0.45 |
| O=S1(=O)Nc2ccccc2CN1C1CCN(CCCC(c2ccc(F)cc2)c2ccc(F)cc2)CC1 | 21.7 |
| O=C1Oc2ccccc2CN1C1CCN(CCCC(c2ccc(F)cc2)c2ccc(F)cc2)CC1 | 4.1 |
| Fc1ccc(C(CCCN2CCC(c3nc4ccccc4[nH]3)CC2)c2ccc(F)cc2)cc1 | 4 |
| Fc1ccc(C(CCCN2CCN(c3nsc4ccccc34)CC2)c2ccc(F)cc2)cc1 | 10.1 |
| Fc1ccc(C(CCCN2CCC(N3CCc4ccccc43)CC2)c2ccc(F)cc2)cc1 | 3.8 |
| Fc1ccc(C(CCCN2CCC(n3cnc4ccccc43)CC2)c2ccc(F)cc2)cc1 | 4.2 |
| O=c1[nH]c2ccccc2c(=O)n1C1CCN(CCCC(c2ccc(F)cc2)c2ccc(F)cc2)CC1 | 2.8 |
| O=C1c2ccccc2C(=O)N1C1CCN(CCCC(c2ccc(F)cc2)c2ccc(F)cc2)CC1 | > 50 |
| N#CC(CCCN1CCC(N2Cc3ccccc3C2)CC1)(c1ccccc1)c1ccccc1 | 7.1 |
| FC(F)(F)c1ccc(C(CCCN2CCC(c3nc4ccccc4[nH]3)CC2)c2ccc(C(F)(F)F)cc2)cc1 | 0.9 |
| Fc1ccc(C(CCCN2CCC(c3nc4ccccc4o3)CC2)c2ccc(F)cc2)cc1 | 11.2 |
| Fc1ccc(C(CCCN2CCC(N3Cc4ccccc4C3)CC2)c2ccc(F)cc2)cc1 | 4.1 |
